Where two headings read alike, the source gives them in different places.
How the values were obtained:
[1] = Stability test in human liver microsomes; format: in vitro ADME
Experimental: (§1) 7. Stability Test in Human Liver Microsomes At 37° C., 1 μM of the test compound was incubated with human liver microsomes (0.5 mg/mL) supplemented with NADPH regeneration system for 5, 10, 20, 30 and 60 minutes, and then LC-MS/MS method was used to detect the concentration of the test compound in the generated sample. The half-life (T1/2) and inherent clearance rate (CLint(mic)) of the compound in human liver microsome solution were obtained by calculating at the corresponding time points and the remaining percentage of the compound.

CYP2C19 = molecular target: T1, CYP2C19 (Homo sapiens, UniProt P33261); experiment: Cytochrome P450 isoenzyme inhibition test, human liver microsomes: CYP2C19; format: in vitro ADME; settings: human liver microsomes 0.1 mg/mL; read-out: IC50, inhibitory activity on CYP2C19
T1 construct: pre-incubated with the human liver microsome solutions containing 5 enzyme mixed substrates; from tissue; host or cells: human liver microsomes
Experimental: (§2) 9. Cytochrome P450 Isoenzyme Inhibition Test Experimental objective: The inhibitory effect of the test compound on the activity of human liver microsomal cytochrome P450 isoenzyme (CYP1A2, CYP2C19, CYP2D6 and CYP3A4) was determined. Experimental operation: The test compound at an incubation concentration of 0, 0.03, 0.1, 0.3, 1, 3, 10, 30 and 100 μM was pre-incubated with the human liver microsome solutions containing 5 enzyme mixed substrates (liver microsome concentration: 0.1 mg/mL) in a water bath at 37° C. for 10 min, respectively, and then a coenzyme factor (NADPH) was added to start the reaction. After incubation in a water bath at 37° C. for 10 min, the reaction was terminated by adding glacial acetonitrile solution containing an internal standard, shaken for 1 min, centrifuged at 4° C. and 10,000 rpm for 10 min, and the supernatant was taken for LC/MS/MS analysis. The amount of metabolites produced by each CYP enzyme substrate was detected. The activity of each CYP isoenzyme was reflected by the production rate of each metabolite. […]

CYP3A4-M = molecular target: T2, CYP3A4-M (Homo sapiens, UniProt P08684); experiment: Cytochrome P450 isoenzyme inhibition test, human liver microsomes: CYP3A4-M; format: in vitro ADME; settings: human liver microsomes 0.1 mg/mL; read-out: IC50, inhibitory activity on CYP3A4-M
T2 construct: pre-incubated with the human liver microsome solutions containing 5 enzyme mixed substrates; from tissue; host or cells: human liver microsomes
Experimental: as §2

GLP-1 receptor = molecular target: T3, GLP-1 receptor (Homo sapiens, UniProt P43220); experiment: HEK293/CRE-luc/GLP-1R cell luciferase reporter test (agonistic effect on GLP-1 receptor); format: cell-based; settings: HEK293/CRE-luc/GLP-1R cells
T3 construct: expressed in transfected cells
Experimental: 1. HEK293/CRE-luc/GLP-1β cell viability
Cell: HEK293/CRE-luc/GLP-1R
Cell culture medium: DMEM+10% FBS+400 μg/ml G418+100 μg/ml Hygromycin B
Frozen stock solution: 90% FBS, 10% (V/V) DMSO
Detection buffer: DMEM+1% FBS
Cells were cultured in DMEM medium+10% FBS+400 μg/ml G418+100 μg/ml Hygromycin B in a CO2 incubator at 37° C., and passaged once every 3-4 days.
Cell plating: Trypsinization adjusted the cell density to 1.67×10^5 cells/mL; 60 μL of cells per well (10000 cells/well) was inoculated in a 384-well plate containing compounds; A NC well (negative control) and a background well (no cells) were set. Incubation was performed for about 18+2 h in the incubator.
Compounds were serially diluted with the detection buffer, and the detection concentration was 0.01 nM-1000 nM.
The cell culture plate was removed and all supernatant was aspirated from the cells. The cells were washed gently 2 times with 1×PBS.
The diluted compound was added to a 384-well plate (10 μL/well), and three replicate wells were set for each concentration. 10 μL of the detection buffer was added to the NC well, sealed and incubated at 37° C. for 6 hours.
The plate was removed, the cells were allowed to equilibrate to room temperature (at least 15 min), and then all supernatant was aspirated from the cells.
Steady-Glo® Reagent was added to the sample well at 10 μL/well and incubated at room temperature for 5 min to lyse the cells.
The test results were read with a BMG microplate reader.
The mean background value was calculated.
The induction factor (Fold of induction, FI)=(induction well value−background value)/(negative control well value −background value) was calculated.
The EC50 value of the sample was calculated using Graphpad Prim 8.0 software using four-parameter fitting analysis.
Mean and standard error (Mean±SEM) were calculated for all results and Graphpad Prism software was used for statistical analysis. Specific data were presented in the form of graphs. P<0.05 was considered to be statistically different.

CYP2D6 = molecular target: T4, CYP2D6 (Homo sapiens, UniProt P10635); experiment: Cytochrome P450 isoenzyme inhibition test, human liver microsomes: CYP2D6; format: in vitro ADME; settings: human liver microsomes 0.1 mg/mL; read-out: IC50, inhibitory activity on CYP2D6
T4 construct: pre-incubated with the human liver microsome solutions containing 5 enzyme mixed substrates; from tissue; host or cells: human liver microsomes
Experimental: as §2

[2] = Stability test in mouse liver microsomes; format: in vitro ADME
Experimental: as §1, with “3.” for “7.”, “Mouse” for “Human”, “mouse” for “human”

T3 sequence (P43220 24-463): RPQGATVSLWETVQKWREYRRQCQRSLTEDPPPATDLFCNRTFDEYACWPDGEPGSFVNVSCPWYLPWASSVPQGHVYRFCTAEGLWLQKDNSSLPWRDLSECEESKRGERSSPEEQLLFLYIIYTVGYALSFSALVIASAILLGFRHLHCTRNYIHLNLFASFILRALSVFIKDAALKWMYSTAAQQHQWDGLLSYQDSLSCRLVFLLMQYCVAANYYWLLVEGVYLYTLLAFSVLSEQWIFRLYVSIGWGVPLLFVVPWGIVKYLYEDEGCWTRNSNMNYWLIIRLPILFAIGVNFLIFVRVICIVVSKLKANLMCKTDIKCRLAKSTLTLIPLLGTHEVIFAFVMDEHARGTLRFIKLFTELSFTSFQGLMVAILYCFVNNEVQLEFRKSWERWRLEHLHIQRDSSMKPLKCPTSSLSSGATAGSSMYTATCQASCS
T2 sequence (P08684 whole entry): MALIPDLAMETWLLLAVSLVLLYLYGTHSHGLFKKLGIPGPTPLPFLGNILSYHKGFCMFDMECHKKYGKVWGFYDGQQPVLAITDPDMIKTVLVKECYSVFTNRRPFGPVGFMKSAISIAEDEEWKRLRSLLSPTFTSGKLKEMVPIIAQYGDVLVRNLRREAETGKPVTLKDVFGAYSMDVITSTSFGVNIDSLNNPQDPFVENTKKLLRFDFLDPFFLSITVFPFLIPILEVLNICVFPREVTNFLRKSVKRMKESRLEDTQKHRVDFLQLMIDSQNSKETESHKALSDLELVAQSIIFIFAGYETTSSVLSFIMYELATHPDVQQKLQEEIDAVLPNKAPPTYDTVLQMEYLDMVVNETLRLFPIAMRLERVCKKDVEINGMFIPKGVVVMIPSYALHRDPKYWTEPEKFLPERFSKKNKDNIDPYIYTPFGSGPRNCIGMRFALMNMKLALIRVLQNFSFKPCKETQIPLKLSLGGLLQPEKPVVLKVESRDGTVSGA
T1 sequence (P33261 whole entry): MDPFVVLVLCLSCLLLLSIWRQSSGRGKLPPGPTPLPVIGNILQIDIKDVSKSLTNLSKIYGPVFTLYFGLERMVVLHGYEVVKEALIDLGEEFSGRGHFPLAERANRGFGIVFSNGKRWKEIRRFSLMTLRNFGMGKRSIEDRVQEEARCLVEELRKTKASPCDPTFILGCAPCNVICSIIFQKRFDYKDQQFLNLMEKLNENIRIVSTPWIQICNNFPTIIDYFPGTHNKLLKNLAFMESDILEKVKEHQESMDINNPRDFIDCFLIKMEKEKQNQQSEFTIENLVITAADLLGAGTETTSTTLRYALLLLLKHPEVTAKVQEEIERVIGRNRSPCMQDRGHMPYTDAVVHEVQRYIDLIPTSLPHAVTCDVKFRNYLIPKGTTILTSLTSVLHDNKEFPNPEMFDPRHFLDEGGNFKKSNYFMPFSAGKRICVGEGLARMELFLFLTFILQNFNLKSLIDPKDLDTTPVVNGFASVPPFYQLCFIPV
T4 sequence (P10635 whole entry): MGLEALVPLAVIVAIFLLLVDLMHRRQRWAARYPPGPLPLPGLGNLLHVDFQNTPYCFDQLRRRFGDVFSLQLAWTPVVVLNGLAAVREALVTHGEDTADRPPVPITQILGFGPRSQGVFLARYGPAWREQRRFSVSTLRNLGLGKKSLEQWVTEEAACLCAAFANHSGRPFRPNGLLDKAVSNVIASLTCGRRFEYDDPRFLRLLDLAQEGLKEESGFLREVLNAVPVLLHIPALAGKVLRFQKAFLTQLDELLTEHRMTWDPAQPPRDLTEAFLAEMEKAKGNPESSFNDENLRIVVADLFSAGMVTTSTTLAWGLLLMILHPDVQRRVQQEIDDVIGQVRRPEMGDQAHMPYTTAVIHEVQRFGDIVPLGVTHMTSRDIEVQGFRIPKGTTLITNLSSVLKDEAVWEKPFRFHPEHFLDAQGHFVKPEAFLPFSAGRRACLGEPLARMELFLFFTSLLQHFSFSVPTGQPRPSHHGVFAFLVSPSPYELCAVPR

half-life at 1 μM ([1]; human liver microsomes 0.5 mg/mL, 1 μM compound, NADPH, 37° C.): 9.23 h
microsomal CLint at 1 μM ([1]; human liver microsomes 0.5 mg/mL, 1 μM compound, NADPH, 37° C., read-out: CLint(mic)): 2.5 µL/min/mg
T1/2 ratio of compound 6 to compound DZ-6 ([1]; human liver microsomes test (section 7)): greater than 3
IC50 (CYP2C19): > 50 µM
IC50 (CYP3A4-M): > 50 µM
EC50 (GLP-1 receptor; 6 hours incubation, class symbols, read-out: EC50): < 0.01 µM
EC50 (GLP-1 receptor; bound stated, read-out: EC50 value): < 0.01 µM
IC50 (CYP2D6): > 50 µM
T1/2 ratio of compound 6 to compound DZ-6 ([2]; mouse liver microsomes): greater than 2
half-life at 1 μM ([2]; mouse liver microsomes 0.5 mg/mL, 1 μM compound, NADPH, 37° C.): 4.93 h
microsomal CLint at 1 μM ([2]; mouse liver microsomes 0.5 mg/mL, 1 μM compound, NADPH, 37° C., read-out: CLint(mic)): 4.69 µL/min/mg
SMILES: N#Cc1ccc(COc2cccc(-c3ccc(Cc4nc5sc(C(=O)O)cc5n4C[C@@H]4CCO4)c(F)c3)n2)c(F)c1 [Compound 6, (S)-2-(4-(6-((4-cyano-2-fluorobenzyl)oxy)pyridin-2-yl)-2-fluorobenzyl)-1-(oxetan-2-ylmethyl)-1H-thieno[2,3-d]imidazole-5-carboxylic acid]
